Measured values from ChEMBL document CHEMBL2176970, “Discovery and optimization of a series of 3-(3-phenyl-3H-imidazo[4,5-b]pyridin-2-yl)pyridin-2-amines: orally bioavailable, selective, and potent ATP-independent Akt inhibitors” (J Med Chem, 2012).
The source made the active and inactive calls. The rule behind the calls is not given here.

Key:
[1] = target: Cytochrome P450 2C19 (Homo sapiens, UniProt P33261); assay: Inhibition of CYP2C19 in human liver microsomes using S-mephenytoin as substrate after 10 mins; assay type: ADME, Microsome
Chain of Cytochrome P450 2C19 (P33261 whole entry): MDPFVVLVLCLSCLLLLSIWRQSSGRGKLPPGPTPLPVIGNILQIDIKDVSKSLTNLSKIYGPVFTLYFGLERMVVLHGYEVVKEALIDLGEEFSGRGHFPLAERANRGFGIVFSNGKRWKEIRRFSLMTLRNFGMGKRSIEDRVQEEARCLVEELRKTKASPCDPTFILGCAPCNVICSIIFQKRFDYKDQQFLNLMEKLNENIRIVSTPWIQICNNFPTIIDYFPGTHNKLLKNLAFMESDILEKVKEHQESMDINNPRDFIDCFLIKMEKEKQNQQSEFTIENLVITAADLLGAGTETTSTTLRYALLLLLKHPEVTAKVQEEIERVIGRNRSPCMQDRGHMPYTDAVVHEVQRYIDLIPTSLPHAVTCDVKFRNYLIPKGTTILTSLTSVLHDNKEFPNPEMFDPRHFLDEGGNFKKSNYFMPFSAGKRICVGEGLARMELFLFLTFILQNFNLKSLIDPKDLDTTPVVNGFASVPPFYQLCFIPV

[2] = tested on: Mus musculus; assay: Inhibition of Akt in human AN3CA cells xenografted NCr mouse assessed as reduction of p70S6 phosphorylation at T389 in tumor at 100 mg/kg, po after 2 hrs; assay type: functional; details: AN3-CA
[3] = Plasma concentration in CD1 mouse at 100 mg/kg, po after 2 hrs by LC/MS/MS analysis; assay type: ADME, organism-based; design: dose 100 mg/kg, route oral
[4] = Oral bioavailability in NCr mouse at 100 mg/kg; assay type: ADME, organism-based; details: in vivo
[5] = target: T1, RAC-beta serine/threonine-protein kinase (Homo sapiens, UniProt P31751); assay: Inhibition of Akt2 (1 to 481) expressed in Sf9 cells using biotin-GRPRTSSFAEG as substrate after 20 mins by Alpha-screen assay
T1 sequence (P31751 whole entry): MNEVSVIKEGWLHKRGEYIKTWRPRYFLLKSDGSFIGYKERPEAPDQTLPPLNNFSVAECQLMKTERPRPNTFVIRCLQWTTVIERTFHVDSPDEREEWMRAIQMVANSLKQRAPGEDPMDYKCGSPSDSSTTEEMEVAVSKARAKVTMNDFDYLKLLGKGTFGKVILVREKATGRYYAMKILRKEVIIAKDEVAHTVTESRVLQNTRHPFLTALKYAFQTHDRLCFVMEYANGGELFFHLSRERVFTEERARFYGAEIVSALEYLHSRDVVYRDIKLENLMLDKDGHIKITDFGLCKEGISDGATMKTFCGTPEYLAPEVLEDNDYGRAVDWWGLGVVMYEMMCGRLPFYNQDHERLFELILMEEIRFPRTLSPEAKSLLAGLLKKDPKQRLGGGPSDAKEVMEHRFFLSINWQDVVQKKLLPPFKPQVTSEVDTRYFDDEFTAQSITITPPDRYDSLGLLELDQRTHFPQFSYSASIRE

[6] = Half life in female CD1 mouse liver microsomes at 1 uM by LC/MS/MS; assay type: ADME, Microsome
[7] = tested on: AN3-CA; assay: Antiproliferative activity against human AN3CA cells after 72 hrs by MTS assay; assay type: functional, cell-based
[8] = Half life in male CD1 mouse liver microsomes at 1 uM by LC/MS/MS; assay type: ADME, Microsome
[9] = target: T2, RAC-alpha serine/threonine-protein kinase (Homo sapiens, UniProt P31749); assay: Inhibition of Akt1 in human A2780 cells assessed as phosphorylation of Akt at S473 after 2 hrs by Western Blot analysis; assay type: cell-based
T2 sequence (P31749 whole entry): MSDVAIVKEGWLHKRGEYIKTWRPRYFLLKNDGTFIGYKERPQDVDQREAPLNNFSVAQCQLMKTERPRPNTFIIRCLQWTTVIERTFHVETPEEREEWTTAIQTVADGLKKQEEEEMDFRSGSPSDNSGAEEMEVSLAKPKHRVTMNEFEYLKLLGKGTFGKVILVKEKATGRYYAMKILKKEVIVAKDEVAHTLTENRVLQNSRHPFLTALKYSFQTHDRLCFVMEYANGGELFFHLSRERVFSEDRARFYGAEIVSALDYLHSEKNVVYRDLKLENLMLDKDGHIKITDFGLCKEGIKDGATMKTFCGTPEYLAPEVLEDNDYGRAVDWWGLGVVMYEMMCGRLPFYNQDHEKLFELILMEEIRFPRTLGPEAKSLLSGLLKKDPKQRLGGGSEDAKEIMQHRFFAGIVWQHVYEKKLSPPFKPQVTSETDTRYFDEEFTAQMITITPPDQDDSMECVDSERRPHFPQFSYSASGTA

[10] = tested on: Mus musculus; assay: Inhibition of Akt in human AN3CA cells xenografted NCr mouse assessed as reduction of Akt phosphorylation at T308 in tumor at 100 mg/kg, po after 2 hrs; assay type: functional; details: AN3-CA
[11] = target: T2, RAC-alpha serine/threonine-protein kinase; assay: Inhibition of Akt 1 in human AN3CA cells assessed as phosphorylation of Akt at T308 after 2 hrs by Western Blot analysis; assay type: cell-based, AN3-CA
[12] = target: T2, RAC-alpha serine/threonine-protein kinase; assay: Inhibition of Akt1 in human AN3CA cells assessed as phosphorylation of Akt at S473 after 2 hrs by Western Blot analysis; assay type: cell-based, AN3-CA
[13] = target: T2, RAC-alpha serine/threonine-protein kinase; assay: Inhibition of Akt1 in human A2780 cells assessed as phosphorylation PRAS40 at T246 after 2 hrs by Western Blot analysis; assay type: cell-based
[14] = tested on: A2780; assay: Antiproliferative activity against human A2780 cells after 72 hrs by MTS assay; assay type: functional, cell-based; details: A2780, 72 h
[15] = target: Cytochrome P450 3A4 (Homo sapiens, UniProt P08684); assay: Inhibition of CYP3A4 in human liver microsomes using midazolam as substrate after 10 mins; assay type: ADME, Microsome
Chain of Cytochrome P450 3A4 (P08684 whole entry): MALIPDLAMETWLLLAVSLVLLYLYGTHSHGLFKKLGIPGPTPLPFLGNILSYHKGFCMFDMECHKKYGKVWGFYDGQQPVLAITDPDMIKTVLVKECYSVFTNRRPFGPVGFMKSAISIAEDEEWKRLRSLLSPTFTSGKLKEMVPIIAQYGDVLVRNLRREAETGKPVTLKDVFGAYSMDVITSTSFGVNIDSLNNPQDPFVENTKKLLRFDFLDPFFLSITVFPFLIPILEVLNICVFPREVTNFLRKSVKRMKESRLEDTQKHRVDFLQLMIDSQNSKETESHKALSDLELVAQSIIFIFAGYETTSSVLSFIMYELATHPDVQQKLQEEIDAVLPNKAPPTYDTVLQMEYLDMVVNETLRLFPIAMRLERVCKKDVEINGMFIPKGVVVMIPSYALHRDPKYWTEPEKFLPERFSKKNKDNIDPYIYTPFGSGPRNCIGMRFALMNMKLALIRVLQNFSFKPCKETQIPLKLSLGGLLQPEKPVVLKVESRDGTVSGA

[16] = target: T1, RAC-beta serine/threonine-protein kinase; assay: Binding affinity to Akt2 (1 to 481) expressed in Sf9 cells assessed as change in melting temperature at 15 uM
[17] = target: T3, Cytochrome P450 2C8 (Homo sapiens, UniProt P10632); assay: Inhibition of CYP2C8 in human liver microsomes using paclitaxel as substrate after 10 mins; assay type: ADME, Microsome
T3 sequence (P10632 whole entry): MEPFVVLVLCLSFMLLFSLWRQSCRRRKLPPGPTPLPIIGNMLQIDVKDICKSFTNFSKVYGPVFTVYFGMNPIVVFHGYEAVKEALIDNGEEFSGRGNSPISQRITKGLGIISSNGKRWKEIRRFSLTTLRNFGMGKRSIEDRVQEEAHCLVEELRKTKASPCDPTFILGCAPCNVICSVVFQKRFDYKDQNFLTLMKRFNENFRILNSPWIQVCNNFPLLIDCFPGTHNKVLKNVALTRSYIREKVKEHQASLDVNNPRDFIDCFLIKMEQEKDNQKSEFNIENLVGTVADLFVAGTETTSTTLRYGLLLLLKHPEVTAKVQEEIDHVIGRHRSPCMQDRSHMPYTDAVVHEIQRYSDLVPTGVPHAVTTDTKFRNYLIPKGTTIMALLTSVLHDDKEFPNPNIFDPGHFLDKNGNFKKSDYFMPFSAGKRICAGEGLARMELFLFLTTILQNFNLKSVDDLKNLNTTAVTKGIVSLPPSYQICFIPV

[18] = target: T2, RAC-alpha serine/threonine-protein kinase; assay: Inhibition of Akt1 (1 to 480) expressed in Sf9 cells using biotin-GRPRTSSFAEG as substrate after 20 mins by Alpha-screen assay
[19] = target: T2, RAC-alpha serine/threonine-protein kinase; details: Sf9
[20] = target: T2, RAC-alpha serine/threonine-protein kinase; assay: Inhibition of Akt 1 in human A2780 cells assessed as phosphorylation of Akt at T308 after 2 hrs by Western Blot analysis; assay type: cell-based
[21] = target: T4, RAC-gamma serine/threonine-protein kinase (Homo sapiens, UniProt Q9Y243); assay: Inhibition of Akt3 (1 to 479) expressed in Sf9 cells using biotin-GRPRTSSFAEG as substrate after 20 mins by Alpha-screen assay
T4 sequence (Q9Y243 whole entry): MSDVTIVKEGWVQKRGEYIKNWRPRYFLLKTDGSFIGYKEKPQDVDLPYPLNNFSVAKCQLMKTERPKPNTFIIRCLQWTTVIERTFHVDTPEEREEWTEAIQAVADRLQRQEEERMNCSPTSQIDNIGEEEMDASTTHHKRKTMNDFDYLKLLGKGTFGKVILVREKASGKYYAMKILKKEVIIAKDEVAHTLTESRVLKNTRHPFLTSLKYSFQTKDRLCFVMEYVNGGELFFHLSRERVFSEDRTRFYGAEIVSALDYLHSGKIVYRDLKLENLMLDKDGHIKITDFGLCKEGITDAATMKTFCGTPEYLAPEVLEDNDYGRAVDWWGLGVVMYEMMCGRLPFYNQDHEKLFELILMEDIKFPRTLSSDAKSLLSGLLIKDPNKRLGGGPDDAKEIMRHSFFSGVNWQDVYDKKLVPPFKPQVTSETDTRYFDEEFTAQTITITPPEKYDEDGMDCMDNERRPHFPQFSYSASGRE

[22] = tested on: Mus musculus; assay: Inhibition of Akt in human AN3CA cells xenografted NCr mouse assessed as reduction of Akt phosphorylation at S473 in tumor at 100 mg/kg, po after 2 hrs; assay type: functional; details: AN3-CA
[23] = target: T4, RAC-gamma serine/threonine-protein kinase; assay: Binding affinity to Akt3 (1 to 479) expressed in Sf9 cells assessed as change in melting temperature at 15 uM
[24] = Half life in human liver microsomes at 1 uM by LC/MS/MS; assay type: ADME, Microsome
[25] = target: T2, RAC-alpha serine/threonine-protein kinase; assay: Inhibition of Akt1 in human AN3CA cells assessed as phosphorylation PRAS40 at T246 after 2 hrs by Western Blot analysis; assay type: cell-based, AN3-CA
[26] = target: T5, Cytochrome P450 1A2 (Homo sapiens, UniProt P05177); assay: Inhibition of CYP1A2 in human liver microsomes using phenacetin as substrate after 10 mins; assay type: ADME, Microsome
T5 sequence (P05177 whole entry): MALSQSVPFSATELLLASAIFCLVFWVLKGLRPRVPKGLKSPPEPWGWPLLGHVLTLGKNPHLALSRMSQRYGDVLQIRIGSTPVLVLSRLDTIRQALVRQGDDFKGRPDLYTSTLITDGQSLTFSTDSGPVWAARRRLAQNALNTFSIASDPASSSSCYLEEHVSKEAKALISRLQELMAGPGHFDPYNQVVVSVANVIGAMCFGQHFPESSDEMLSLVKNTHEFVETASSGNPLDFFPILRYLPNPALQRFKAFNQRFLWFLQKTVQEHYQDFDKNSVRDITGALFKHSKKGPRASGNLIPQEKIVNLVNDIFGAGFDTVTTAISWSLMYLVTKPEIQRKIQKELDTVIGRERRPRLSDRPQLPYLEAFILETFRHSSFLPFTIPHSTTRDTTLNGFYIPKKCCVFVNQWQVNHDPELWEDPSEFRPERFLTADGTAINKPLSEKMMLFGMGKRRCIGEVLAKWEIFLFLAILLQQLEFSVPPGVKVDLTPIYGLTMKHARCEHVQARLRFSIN

[27] = target: Cytochrome P450 2C9 (Homo sapiens, UniProt P11712); assay: Inhibition of CYP2C9 in human liver microsomes using tolbutamide as substrate after 10 mins; assay type: ADME, Microsome
Chain of Cytochrome P450 2C9 (P11712 whole entry): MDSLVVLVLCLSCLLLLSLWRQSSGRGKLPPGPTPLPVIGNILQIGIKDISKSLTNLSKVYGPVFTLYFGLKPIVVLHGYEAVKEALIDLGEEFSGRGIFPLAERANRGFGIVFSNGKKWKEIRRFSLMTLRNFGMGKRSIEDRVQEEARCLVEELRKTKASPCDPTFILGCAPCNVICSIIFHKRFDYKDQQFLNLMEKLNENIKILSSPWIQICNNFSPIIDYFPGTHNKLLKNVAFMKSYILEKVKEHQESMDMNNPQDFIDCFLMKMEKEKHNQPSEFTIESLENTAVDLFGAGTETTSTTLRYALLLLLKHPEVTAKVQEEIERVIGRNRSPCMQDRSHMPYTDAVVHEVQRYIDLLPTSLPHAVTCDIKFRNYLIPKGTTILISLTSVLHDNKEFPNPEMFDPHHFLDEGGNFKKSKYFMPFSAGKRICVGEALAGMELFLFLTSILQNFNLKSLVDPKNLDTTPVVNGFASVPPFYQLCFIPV

[28] = target: Cytochrome P450 2D6 (Homo sapiens, UniProt P10635); assay: Inhibition of CYP2D6 in human liver microsomes using bufuralol as substrate after 10 mins; assay type: ADME, Microsome
Chain of Cytochrome P450 2D6 (P10635 whole entry): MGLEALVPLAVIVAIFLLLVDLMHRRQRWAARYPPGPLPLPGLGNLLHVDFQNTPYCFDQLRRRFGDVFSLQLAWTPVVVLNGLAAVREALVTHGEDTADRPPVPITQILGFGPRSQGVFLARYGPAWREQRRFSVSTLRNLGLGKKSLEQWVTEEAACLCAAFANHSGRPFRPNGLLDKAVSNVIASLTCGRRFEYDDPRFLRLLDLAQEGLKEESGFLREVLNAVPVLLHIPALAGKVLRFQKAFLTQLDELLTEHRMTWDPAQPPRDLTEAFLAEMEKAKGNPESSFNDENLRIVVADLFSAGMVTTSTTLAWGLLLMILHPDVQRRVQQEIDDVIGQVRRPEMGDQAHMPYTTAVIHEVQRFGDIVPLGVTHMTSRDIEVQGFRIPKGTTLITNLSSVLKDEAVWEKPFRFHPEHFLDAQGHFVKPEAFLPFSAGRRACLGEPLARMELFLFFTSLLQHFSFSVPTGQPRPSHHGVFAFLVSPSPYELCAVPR

[29] = Drug level in human AN3CA cells xenografted NCr mouse tumor at 100 mg/kg, po after 2 hrs; assay type: ADME, organism-based, Neoplasm, AN3-CA; design: dose 100 mg/kg, route oral; details: read-out: Drug uptake
[30] = tested on: Mus musculus; assay: Inhibition of Akt in human AN3CA cells xenografted NCr mouse assessed as reduction of p70S6 phosphorylation at T389 in tumor at 250 mg/kg, po after 2 hrs; assay type: functional; details: AN3-CA
[31] = target: T2, RAC-alpha serine/threonine-protein kinase; assay: Binding affinity to Akt1 (1 to 480) expressed in Sf9 cells by SPR analysis
[32] = tested on: Mus musculus; assay: Inhibition of Akt in human AN3CA cells xenografted NCr mouse assessed as reduction of Akt phosphorylation at S473 in tumor at 250 mg/kg, po after 2 hrs; assay type: functional; details: AN3-CA
[33] = Plasma concentration in CD1 mouse at 250 mg/kg, po after 2 hrs by LC/MS/MS analysis; assay type: ADME, organism-based; design: dose 250 mg/kg, route oral
[34] = Drug level in human AN3CA cells xenografted NCr mouse tumor at 250 mg/kg, po after 2 hrs; assay type: ADME, organism-based, Neoplasm, AN3-CA; design: dose 250 mg/kg, route oral; details: read-out: Drug uptake
[35] = tested on: Mus musculus; assay: Inhibition of Akt in human AN3CA cells xenografted NCr mouse assessed as reduction of Akt phosphorylation at S473 in tumor at 250 mg/kg, po after 4 hrs; assay type: functional; details: AN3-CA
[36] = tested on: Mus musculus; assay: Inhibition of Akt in human AN3CA cells xenografted NCr mouse assessed as reduction of p70S6 phosphorylation at T389 in tumor at 250 mg/kg, po after 4 hrs; assay type: functional; details: AN3-CA
[37] = Drug level in human AN3CA cells xenografted NCr mouse tumor at 250 mg/kg, po after 4 hrs; assay type: ADME, organism-based, Neoplasm, AN3-CA; design: dose 250 mg/kg, route oral; details: read-out: Drug uptake
[38] = target: T2, RAC-alpha serine/threonine-protein kinase; assay: Inhibition of Akt1 (1 to 480) expressed in Sf9 cells in presence of A674563
[39] = Plasma concentration in CD1 mouse at 250 mg/kg, po after 4 hrs by LC/MS/MS analysis; assay type: ADME, organism-based; design: dose 250 mg/kg, route oral
[40] = tested on: Mus musculus; assay: Inhibition of Akt in human AN3CA cells xenografted NCr mouse assessed as reduction of Akt phosphorylation at T308 in tumor at 250 mg/kg, po after 4 hrs; assay type: functional; details: AN3-CA
[41] = tested on: Mus musculus; assay: Inhibition of Akt in human AN3CA cells xenografted NCr mouse assessed as reduction of Akt phosphorylation at T308 in tumor at 250 mg/kg, po after 2 hrs; assay type: functional; details: AN3-CA
[42] = target: T2, RAC-alpha serine/threonine-protein kinase; details: Sf9; remark: listed apart in the source
Description: Binding affinity to Akt1 (144 to 480) expressed in Sf9 cells assessed as change in melting temperature at 15 uM

[43] = target: T2, RAC-alpha serine/threonine-protein kinase; details: Sf9; remark: listed apart in the source
Description: Binding affinity to Akt1 (1 to 480) expressed in Sf9 cells assessed as change in melting temperature at 15 uM

[44] = target: T2, RAC-alpha serine/threonine-protein kinase; details: Sf9; remark: listed apart in the source
Description: Binding affinity to Akt1 (144 to 480) expressed in Sf9 cells assessed as fluorescence quenching by Trp fluorescence assay

[45] = target: T2, RAC-alpha serine/threonine-protein kinase; details: Sf9; remark: listed apart in the source
Description: Binding affinity to Akt1 (1 to 480) expressed in Sf9 cells assessed as fluorescence quenching by Trp fluorescence assay

Compound	IC50 [1] [nM]	IC50 [5] [nM]	half-life at 1 µM [6] [min]	IC50 [7] [nM]	half-life at 1 µM [8] [min]	IC50 [9] [nM]	IC50 [11] [nM]	IC50 [12] [nM]	IC50 [13] [nM]	IC50 [14] [nM]	IC50 [15] [nM]	ΔTm [16] [°C]	IC50 [17] [nM]	ΔTm [19] [°C]	IC50 [20] [nM]	IC50 [21] [nM]	ΔTm [23] [°C]	half-life at 1 µM [24] [min]	IC50 [25] [nM]	IC50 [26] [nM]	other results
Nc1ncccc1-c1nc2cc(-c3cccnc3)cnc2n1-c1ccc(CNC(=O)c2ccccc2)cc1	> 10000	30	> 60	> 100000	> 60	100	91	80	950	> 100000	> 10000	4.8	> 10000	9.2	62	660	1.6	> 30	1500	> 10000	inhibition in vivo at 100 mg/kg [2]: 76%; concentration at 2 h [3]: 14100 nM; bioavailability [4]: 46%; inhibition in vivo at 100 mg/kg [10]: 25%; IC50 [18]: 8 nM; inhibition in vivo at 100 mg/kg [22]: 82%; IC50 [27]: > 10000 nM; IC50 [28]: > 10000 nM; concentration at 2 h [29]: 8400 nM
CC(=O)Nc1cccc(-c2ccc3nc(-c4cccnc4N)n(-c4ccc(CNC(=O)c5cccc(F)c5)cc4)c3n2)c1	1000	18	> 30	2000	> 30	27	45	44	250	2200	> 10000	7.7	1000	13	32	170	2.9	> 30	220	> 10000	inhibition in vivo at 250 mg/kg [30]: 90%; Activity [31]: Active; inhibition in vivo at 250 mg/kg [32]: 62%; concentration at 2 h [33]: 2000 nM; concentration at 2 h [34]: 1200 nM; inhibition in vivo at 250 mg/kg [35]: 51%; inhibition in vivo at 250 mg/kg [36]: 86%; concentration at 4 h [37]: 600 nM; inhibition [38]: Active; concentration at 4 h [39]: 1200 nM; inhibition in vivo at 250 mg/kg [40]: 67%; inhibition in vivo at 250 mg/kg [41]: 57%; IC50 [27]: 1000 nM; IC50 [28]: > 10000 nM
Cc1n[nH]c2ccc(-c3cncc(OC[C@@H](N)Cc4ccccc4)c3)cc12	–	–	–	–	–	–	–	–	–	–	–	–	–	–	–	–	–	–	–	–	ΔTm [42]: 1.3 °C; deltaTm [43]: inactive; ΔTm [44]: 2.12 °C; deltaTm [45]: inactive
